From PubChem BioAssay (NCI)
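All cell lines were grown in 96-well plates and treated with compound for 48 hours. TGI: total growth inhibition.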

Key:
Experiment in all cases: inhibition of tumour cell growth, NCI panel, 48 h
786-0 renal = tested on: 786-0 renal
A498 renal = tested on: A498 renal
A549 NSCLC = tested on: A549 NSCLC
ACHN renal = tested on: ACHN renal
CAKI-1 renal = tested on: CAKI-1 renal
CCRF-CEM leukemia = tested on: CCRF-CEM leukemia
COLO 205 colon = tested on: COLO 205 colon
DLD-1 colon = tested on: DLD-1 colon
DMS 114 small cell lung = tested on: DMS 114 small cell lung
DMS 273 small cell lung = tested on: DMS 273 small cell lung
EKVX NSCLC = tested on: EKVX NSCLC
HCC-2998 colon = tested on: HCC-2998 colon
HCT-116 colon = tested on: HCT-116 colon
HCT-15 colon = tested on: HCT-15 colon
HL-60(TB) leukemia = tested on: HL-60(TB) leukemia
HOP-18 NSCLC = tested on: HOP-18 NSCLC
HOP-62 NSCLC = tested on: HOP-62 NSCLC
HOP-92 NSCLC = tested on: HOP-92 NSCLC
HT29 colon = tested on: HT29 colon
IGROV1 ovarian = tested on: IGROV1 ovarian
K-562 leukemia = tested on: K-562 leukemia
KM12 colon = tested on: KM12 colon
KM20L2 colon = tested on: KM20L2 colon
LOX IMVI melanoma = tested on: LOX IMVI melanoma
LXFL 529 NSCLC = tested on: LXFL 529 NSCLC
M14 melanoma = tested on: M14 melanoma
M19-MEL melanoma = tested on: M19-MEL melanoma
MALME-3M melanoma = tested on: MALME-3M melanoma
MOLT-4 leukemia = tested on: MOLT-4 leukemia
NCI-H226 lung = tested on: NCI-H226 lung
NCI-H23 lung = tested on: NCI-H23 lung
NCI-H460 lung = tested on: NCI-H460 lung
NCI-H522 lung = tested on: NCI-H522 lung
OVCAR-3 ovarian = tested on: OVCAR-3 ovarian
OVCAR-4 ovarian = tested on: OVCAR-4 ovarian
OVCAR-5 ovarian = tested on: OVCAR-5 ovarian
OVCAR-8 ovarian = tested on: OVCAR-8 ovarian
RPMI-8226 leukemia = tested on: RPMI-8226 leukemia
RXF 393 renal = tested on: RXF 393 renal
SF-268 CNS = tested on: SF-268 CNS
SF-295 CNS = tested on: SF-295 CNS
SF-539 CNS = tested on: SF-539 CNS
SK-MEL-2 melanoma = tested on: SK-MEL-2 melanoma
SK-MEL-28 melanoma = tested on: SK-MEL-28 melanoma
SK-MEL-5 melanoma = tested on: SK-MEL-5 melanoma
SK-OV-3 ovarian = tested on: SK-OV-3 ovarian
SN12C renal = tested on: SN12C renal
SNB-19 CNS = tested on: SNB-19 CNS
SNB-75 CNS = tested on: SNB-75 CNS
SNB-78 CNS = tested on: SNB-78 CNS
SR leukemia = tested on: SR leukemia
SW-620 colon = tested on: SW-620 colon
TK-10 renal = tested on: TK-10 renal
U251 CNS = tested on: U251 CNS
UACC-257 melanoma = tested on: UACC-257 melanoma
UACC-62 melanoma = tested on: UACC-62 melanoma
UO-31 renal = tested on: UO-31 renal
XF 498 CNS = tested on: XF 498 CNS

Structure (SMILES): O=C1C=CC(=O)C2=C1[C@@H](O)C1CC=CC3C(=O)O[C@@H]2C31 (stereo partly drawn)
- TGI (786-0 renal): > 55.2 µM
- TGI (A498 renal): > 100 µM
- TGI (A549 NSCLC): > 100 µM
- TGI (ACHN renal): > 69.9 µM
- TGI (CAKI-1 renal): 35.2 µM
- TGI (CCRF-CEM leukemia): 42.9 µM
- TGI (COLO 205 colon): 37 µM
- TGI (DLD-1 colon): 37.9 µM
- TGI (DMS 114 small cell lung): 51.3 µM
- TGI (DMS 273 small cell lung): 49.4 µM
- TGI (EKVX NSCLC): > 100 µM
- TGI (HCC-2998 colon): 34.6 µM
- TGI (HCT-116 colon): 39.7 µM
- TGI (HCT-15 colon): 44.1 µM
- TGI (HL-60(TB) leukemia): 40.4 µM
- TGI (HOP-18 NSCLC): > 62 µM
- TGI (HOP-62 NSCLC): > 100 µM
- TGI (HOP-92 NSCLC): 45.4 µM
- TGI (HT29 colon): > 65.4 µM
- TGI (IGROV1 ovarian): 22.6 µM
- TGI (K-562 leukemia): > 61.5 µM
- TGI (KM12 colon): 41.2 µM
- TGI (KM20L2 colon): 60.9 µM
- TGI (LOX IMVI melanoma): 50.1 µM
- TGI (LXFL 529 NSCLC): 29.3 µM
- TGI (M14 melanoma): 36 µM
- TGI (M19-MEL melanoma): > 58.3 µM
- TGI (MALME-3M melanoma): 34.6 µM
- TGI (MOLT-4 leukemia): 56.5 µM
- TGI (NCI-H226 lung): > 75.1 µM
- TGI (NCI-H23 lung): > 68 µM
- TGI (NCI-H460 lung): > 100 µM
- TGI (NCI-H522 lung): 34.8 µM
- TGI (OVCAR-3 ovarian): 36.8 µM
- TGI (OVCAR-4 ovarian): 17.7 µM
- TGI (OVCAR-5 ovarian): > 100 µM
- TGI (OVCAR-8 ovarian): > 71.3 µM
- TGI (RPMI-8226 leukemia): 57.7 µM
- TGI (RXF 393 renal): 33.9 µM
- TGI (SF-268 CNS): > 70.6 µM
- TGI (SF-295 CNS): > 100 µM
- TGI (SF-539 CNS): > 58.6 µM
- TGI (SK-MEL-2 melanoma): 35.6 µM
- TGI (SK-MEL-28 melanoma): > 62.3 µM
- TGI (SK-MEL-5 melanoma): 41.2 µM
- TGI (SK-OV-3 ovarian): > 100 µM
- TGI (SN12C renal): 37.2 µM
- TGI (SNB-19 CNS): > 100 µM
- TGI (SNB-75 CNS): 50.7 µM
- TGI (SNB-78 CNS): > 62.3 µM
- TGI (SR leukemia): > 100 µM
- TGI (SW-620 colon): 57 µM
- TGI (TK-10 renal): > 58.1 µM
- TGI (U251 CNS): > 100 µM
- TGI (UACC-257 melanoma): > 57.5 µM
- TGI (UACC-62 melanoma): 35.8 µM
- TGI (UO-31 renal): > 71.5 µM
- TGI (XF 498 CNS): 42.1 µM
